Type in all cases: cell-based, human
For assay [1], the system named is PHA-stimulated lymphocytes, chromosome 21, 13, 17 and 15. Nature of the assay: FISH analysis of chromosome losses and gains with and without 5-azacytidine (Example 6). The following applies: cancerous samples 1-15, presence vs absence of AZA. The protocol: (§1) Each subject donated five ml of peripheral blood. Cell cultures of PHA-stimulated lymphocytes were set up according to standard protocol (Rooney and Czepulkowsli, 1992). Briefly, 0.5 ml of peripheral blood was introduced into a 15 ml test tube containing 5ml F-10 medium supplemented with 20% fetal calf serum, 0.2% heparin, 1% penicillin/streptomycin antibiotic solution (Biological industries, Israel) and 3% phytohemagglutinin (PHA). In addition, all the 15 samples derived from the hematological patients (samples 1-15) and 15 of the 41 samples derived from non-cancerous subjects (samples 16-30) were also grown in the presence of 10^−7M 5-azacytidine (AZA; Sigman, USA) added to the other ingredients described above.
For the analyses of chromosome losses and gains, at least 200 cells following one-color FISH with each of the chromosome enumerating probes (AML1, RB1, CEN17 and CEN15) were scored for each tested sample, employing the same preparation used for evaluating allelic replication timing. The frequency of cells containing a single signal was used to evaluate the extent of chromosome losses and the frequency of cells with three or more signals were used to assess the level of chromosome gains.
The mean SD value of five loci (TP53, AML1, RB1, CEN17 and CEN15) and the mean losses and gains value of four loci (AML1, RB1, CEN17 and CEN15) represent each sample. […]

Assay [2] concerns CAD samples (hematological malignancy patients at diagnosis). Nature of the assay: FISH replication assay, cultures of hematological malignancy patients (CAD) with chromatin modifiers (Example 10). The following applies: for frequency (%) of SD cells, Mean: CAD + AZA (10^-7M), N = 20. An excerpt:
Cultures were set up from 44 healthy individuals (hereafter called CON) and 20 hematological malignancy patients at diagnosis (hereafter termed CAD). For 20 of the CON samples and all of the CAD samples peripheral in addition to the setting up cultures in the regular growth medium, cultures were set up in medium containing 5-azacytidine (10^−7M; Sigma, USA; hereafter referred to as AZA) a demethylating agent. In addition, cultures from 6 CON and 10 CAD samples were set up in medium containing a deacetylating agents, either Trichostatin A (33 nM; Sigma, USA; hereafter referred to as TSA) or Sodium Butirate (1 nM; Sigma, USA; hereafter referred to as NB), two well described acetylating agents.
These samples were hybridized with two commercial probes: the AML1 probe (LSI 21, […]) and the α-satellite probe specific for centromere 17 (32-130017, hereafter marked as CEN17). The results are summarized in Table 1 giving the number of samples hybridized with each probe (N), Mean and standard deviation (stdev) as well as the p value obtained using two tailed student's t-test (Microsoft Office 98).

The subject of assay [3] is PHA-stimulated lymphocytes of patients suffering from a hematological malignancy. Nature of the assay: FISH replication assay, lymphocytes of hematological cancer patients grown with 5-azacytidine (Example 6). The following applies: for percentage of SD cells following exposure to AZA, mean value: patients' samples 1-15, 72 hours, mean ± standard deviation. The protocol:
as §1
After 72 hours at 37° C., colchicine (Sigma, USA) was added to each sample (final concentration of 5×10^−7M for one hour) followed by hypotonic treatment (0.075 M KC1 at 37° C. for 15 minutes) and four washes, each with a fresh cold (−20° C.) 3:1 solution of methanol: acetic acid. The cell suspensions were stored at −20° C. until used for FISH.
Six diverse loci were tested using directly labeled commercial probes obtained from Vysis: (i) the SNRPN probe (32-190004); (ii) the TP53 probe (32-190006); (iii) the AML1 probe (LSI 21; 32-190002); (iv) the RB1 probe (LSI 13; 32-190001); (v) the α-satellite probe specific for centromere 17 (32-130017, hereafter marked as CEN17); and (vi) the satellite III probe specific for centromere 15 (32-1300015, hereafter marked as CEN15). The SNRPN probe identifies the Prader-Willi/Angelman syndrome region on 15q11-13 and is the most well characterized imprinted region in man (Ozoelik et al 1992). The TP53 probe identifies the p53 gene mapped to […] and is a tumor suppressor gene whose deletion and/or inactivation is implicated in over 50% of all human tumors (Prokocimer et al 1998). The AML1 probe recognizes a gene mapped to chromosome 21q22, which is one of the most frequently translocated genes in human blood malignancy (Look 1997). […] It is located on chromosome 13q14, and encodes the retinoblastoma protein. Both centromere specific probes (CEN17 and CEN15) identify non-coding loci implicated with chromosomal segregation and stability and are usually used for the enumeration of chromosome 17 and 15, respectively. Also the AML1 and RB1 probes, although not identifying centromeric regions, were both approved by the FDA to replace centromere specific probes for the enumeration of chromosomes 21 and 13, respectively.
A standard protocol was followed, as recommended by Ingen Laboratories (currently Insitus Biotechnologies), with few minor changes. Probes were diluted in Ingen's DenHyb solutions D001 to 400 folds (CEN17 and CEN15) and in D003 to 100 fold (AML1; RB1) or 50 fold (TP53; SNRPN) instead of the hybridization solution supplied with the probe. Five μl of the probe solution was placed on the targeted area of the sample slides and covered with a 12 mm round silanized coverslip (Ingen laboratories, USA) at 76° C. and denatured for six minutes at that temperature. The slide-filled aluminum slide tray was then transferred into an HybBox (Ingen Laboratories, USA), covered and allowed to hybridize overnight in the box.
All samples obtained from the cancerous patients (samples 1-15) were analyzed with each of the six probes used, each in the absence as well as in the presence of AZA. Out of the non-cancerous samples grown without AZA 41 (samples 16-56) were analyzed with the AML1 and TP53 probes, 30 (samples 16-45) with the CEN17 probe and 15 (samples 16-30) with each of the other three probes (SNRPN, RB1 and CEN15).
Slides were analyzed blindly on an Olympus BH2 fluorescent microscope, using a triple band-pass filter (Chroma technology). For the replication assay (Boogs and Chinault, 1997) at least 100 cells, containing two well-defined hybridization signals were scored from each sample, for each probe and for each treatment, following one-color FISH. […]

For the compound `Nc1ncn([C@@H]2O[C@H](CO)[C@@H](O)[C@H]2O)c(=O)n1` [AZA, 5-azacytidine], the “losses and gains values (mean of AML1, RB1, CEN17 and CEN15)” value in assay [1] was “unchanged”. The “frequency (%) of SD cells, Mean” value is reported as “Mean = 25.3%” in assay [2] (AML1 locus) and “Mean = 22.7%” in assay [2] (CEN17 locus). The “replication pattern in cells derived from cancer patients” value in assay [2] (cultured cells with chromatin modifier) was “attenuate the replication pattern presented in cells derived from cancer patients towards the normal”. The “percentage of SD cells following exposure to AZA, mean value” in assay [3] (AML1 locus, 10^-7M AZA) is listed as 25.3±3.7%; in assay [3] (CEN15 locus, 10^-7M AZA), 21.9±2.3%; in assay [3] (CEN17 locus, 10^-7M AZA), 22.7±3.4%; in assay [3] (RB1 locus, 10^-7M AZA) it was 22.4±2.5%; in assay [3] (TP53 locus, 10^-7M AZA), 21.7±4.4%. In addition, the “percentage of SD cells following exposure to AZA, range” value in assay [3] (TP53, AML1, RB1, CEN17 and CEN15, patients' samples, 10^-7M AZA) is 15-28%. Moreover, the cancer-induced allele-specific replication entry in assay [3] (all five loci tested (TP53, RB1, AML1, satellited sequences of chromosomes 15 and 17), blood cells of hematological patients) was “reversed to the normal”. For the same compound, in assay [3] (patients' samples exposed to AZA), the “combined SD frequency (mean of TP53, AML1, RB1, CEN17 and CEN15) per sample, range” value is 19.8-26.2%.

The values above are taken from patent US6803195B1, “Facile detection of cancer and cancer risk based on level of coordination between alleles” (Ramot At Tel-Aviv University Ltd., priority 1999, dated 2004).
